Test results reported in PMC8765437, “GSK3640254 Is a Novel HIV-1 Maturation Inhibitor with an Optimized Virology Profile” (Antimicrobial Agents and Chemotherapy, 2022).
Where two headings read alike, the source gives them in different places.

Tests used:
[1] = tested on: HIV-1 viruses containing Gag region SDMs; assay: Single-cycle infection assay with Gag SDM viruses; type: cell-based
Description: Single-cycle infection assays were performed as described previously ([10]). Half-maximal effective concentration values were calculated as the compound concentration that inhibits 50% of the maximal signal (no-drug control), correcting for background. Background was determined as the residual signal observed upon inhibition at the highest concentration of a control protease inhibitor, nelfinavir (3 μM). Half-maximal fold change effective concentration versus WT values were calculated by dividing the EC50 of the recombinant virus by the EC50 of WT RepRlucNL4-3 virus run in parallel.

HIV-1 = tested on: HIV-1; design: method as in PMID 30352054; details: in combination with emtricitabine and tenofovir disoproxil fumarate; cited from earlier work
[2] = tested on: NLRepRlucP373S-based viruses; assay: microbe, parasite or virus in culture; type: cell-based, HIV-1; details: for EC50 / EC90: 10% FBS + 40% HS + 27 mg/mL of HSA
[3] = Human serum protein binding, ultracentrifugation assay; type: in vitro ADME
[4] = Cytotoxicity in MT-2 cells (MTS, 4-day incubation); type: cell-based; details: human, read-out: half-maximal cytotoxic concentration (CC50)
Description: The assay was performed in a phenol red-free medium at an initial cell density of 10,000 per well in a 96-well plate format. Cell viability was determined using a redox dye assay [3-(4,5-dimethylthiazol-2-yl)-5-(3-carboxymethoxyphenyl)-2-(4-sulfophenyl)-2H-tetrazolium, inner salt (MTS); Promega, Madison, WI] according to the manufacturer’s protocol. Half-maximal cytotoxic concentration values were calculated by fitting to a 4-parameter logistic formula y = A + {[B − A]/1 + [(C/x)^d]}, where A and B are minimal and maximal percent inhibition, respectively, C is the EC50, d is the Hill slope, and x represents compound concentrations.

[5] = tested on: p25 cleavage in HIV-1 Gag VLPs; assay: Gag p25 cleavage assay (delipidated VLPs, HIV-1 protease, LC-MS); type: biochemical; details: WT and ΔV370 VLPs; 3 μM compound
Description: (§1) Virus-like particles of 3 genotypes were constructed and tested. In addition to WT VLP, a VLP with V370 deleted (ΔV370; a genotype characteristic of subtype C viruses) and one with the known resistance substitution A364V were analyzed. […] A364V is a substitution adjacent to the p25/p24 cleavage site (L363/A364), and in this assay (Fig. 3C), neither MI inhibited production of p24 in the presence of HIV-1 protease.
(§2) As previously described ([22]), VLPs (∼100 ng) were diluted (1:10) in 10 μL of VLP buffer (50 mM MES [pH 6.0], 100 mM NaCl, 2 mM EDTA, and 2 mM dithiothreitol) supplemented with 0.06% Triton X-100 and incubated at room temperature for 10 to 30 min to remove lipid bilayers. […] Samples (1 μL) were taken at 0-, 0.5-, 2-, and 4-h time points and underwent trypsin digestion. […] Peptide samples were then analyzed by liquid chromatography with mass spectrometry using a nanoAcquity ultraperformance liquid chromatography system (Waters Corporation, Milford, MA) interfaced with an LTQ XL Orbitrap mass spectrometer (Thermo Fisher Scientific, Waltham, MA). […]
(§3) Signals for SP1 peptides were normalized to an internal protease fragment at the C-terminal end of Gag, and data were analyzed using Thermo Xcalibur processing software 3.0.63 and Thermo Xcalibur Quanbrowser software 3.0.63 (Thermo Fisher Scientific) as described previously ([23]).

[6] = tested on: T1, p25 cleavage in HIV-1 Gag VLPs; assay: as above; type: biochemical; details: A364V VLP; 3 μM compound
T1 construct: made in house
Description: as §1, §2, §3

[7] = tested on: NL4-3P373S viruses (WT and V370A); assay: Resistance selection by serial passage in increasing GSK’254 concentrations; type: cell-based, HIV-1; details: starting concentration 2 nM GSK’254
Description: NL4-3GagP373S (WT) and the SDM NL4-3 GagP373SV370A (V370A) were used to start the selections. These variants were selected as parent virus based on common WT and V370A expression in HIV-1 subtypes (47% WT and ∼36% V370A as indicated by the LANL HIV sequence database (https://www.hiv.lanl.gov/content/index). Each selection was performed in triplicate, starting with 2 × 10^6 MT-2 cells infected with each virus at an MOI of 0.005 (50% tissue culture infectious dose determined by CPE and cultured in 2 × 10^5 cells/mL in compound-containing medium). Each passage was terminated at ∼100% CPE. To passage virus, the cultures were centrifuged, and 25 μL of viral supernatants was transferred into 10 mL of a fresh cell culture in the presence of a 2-fold-increased compound concentration.

[8] = Human immunodeficiency virus 1, read-out: Mean ± SD EC50, A364V
[9] = Human immunodeficiency virus 1, read-out: Mean ± SD EC50, A366V
[10] = Human immunodeficiency virus 1, read-out: Mean ± SD EC50, A366V/V370M
[11] = Human immunodeficiency virus 1, read-out: Mean ± SD EC50, H358Y/ΔT371
[12] = Human immunodeficiency virus 1, read-out: Mean ± SD EC50, I333V/V362I
[13] = Human immunodeficiency virus 1, read-out: Mean ± SD EC50, I333V/V370
[14] = Human immunodeficiency virus 1, read-out: Mean ± SD EC50, I333V/V370A
[15] = Human immunodeficiency virus 1, read-out: Mean ± SD EC50, M367V
[16] = Human immunodeficiency virus 1, read-out: Mean ± SD EC50, R361K/V362I/L363M
[17] = Human immunodeficiency virus 1, read-out: Mean ± SD EC50, T33N/V370A
[18] = Human immunodeficiency virus 1, read-out: Mean ± SD EC50, T332N/V370A
[19] = Human immunodeficiency virus 1, read-out: Mean ± SD EC50, T332S/V362I/prR41G
[20] = Human immunodeficiency virus 1, read-out: Mean ± SD EC50, V362I
[21] = Human immunodeficiency virus 1, read-out: Mean ± SD EC50, V362I/A366V
[22] = Human immunodeficiency virus 1, read-out: Mean ± SD EC50, V362I/A366V/V370M
[23] = Human immunodeficiency virus 1, read-out: Mean ± SD EC50, V362I/H219Q
[24] = Human immunodeficiency virus 1, read-out: Mean ± SD EC50, V362I/H219Q/T332S
[25] = Human immunodeficiency virus 1, read-out: Mean ± SD EC50, V362I/V370A
[26] = Human immunodeficiency virus 1, read-out: Mean ± SD EC50, V362I/V370M
[27] = Human immunodeficiency virus 1, read-out: Mean ± SD EC50, V370A
[28] = Human immunodeficiency virus 1, read-out: Mean ± SD EC50, V370M
[29] = Human immunodeficiency virus 1, read-out: Mean ± SD EC50, Wild type
[30] = Human immunodeficiency virus 1, read-out: Mean ± SD EC50, ΔV370
[31] = Human immunodeficiency virus 1, HS27, V370A
[32] = Human immunodeficiency virus 1, HS27, Wild type
[33] = Human immunodeficiency virus 1, HS27, ΔV370

C=C(C)[C@@H]1CC[C@]2(NCCN3CCS(=O)(=O)CC3)CC[C@]3(C)[C@H](CC[C@@H]4[C@@]5(C)CC=C(c6ccc(C(=O)O)cc6)C(C)(C)[C@@H]5CC[C@]43C)[C@@H]12 [GSK’795, reference compound]
MPI ([1]; A364V): 8%
MPI ([1]; A366V): 3%
MPI ([1]; A366V/V370M): 3%
MPI ([1]; H358Y/ΔT371): 18%
EC50 [1, 8]: > 3000 nM
EC50 [1, 9]: > 3000 nM
EC50 [1, 10]: > 3000 nM
EC50 [1, 11]: > 3000 nM
EC50 [1, 12]: > 3000 nM
EC50 [1, 13]: > 3000 nM
EC50 [1, 14]: > 3000 nM
EC50 [1, 15]: > 3000 nM
EC50 [1, 16]: > 3000 nM
EC50 [1, 17]: 30 nM
EC50 [1, 18]: 30 nM
EC50 [1, 19]: > 3000 nM
EC50 [1, 20]: 14 ± 6 nM
EC50 [1, 21]: > 3000 nM
EC50 [1, 22]: > 3000 nM
EC50 [1, 23]: 66 nM
EC50 [1, 24]: 710 nM
EC50 [1, 25]: > 3000 nM
EC50 [1, 26]: > 3000 nM
EC50 [1, 27]: 6 nM
EC50 [1, 28]: 13 ± 11 nM
EC50 [1, 29]: 5 ± 3 nM
EC50 [1, 30]: 110 nM
MPI ([1]; I333V/V362I): −30%
MPI ([1]; I333V/V370): −36%
MPI ([1]; I333V/V370A): 10%
MPI ([1]; M367V): 36%
MPI ([1]; R361K/V362I/L363M): 36%
MPI ([1]; T33N/V370A): 70%
MPI ([1]; T332N/V370A): 70%
MPI ([1]; T332S/V362I/prR41G): −30%
MPI ([1]; V362I): 68%
MPI ([1]; V362I/A366V): −109%
MPI ([1]; V362I/A366V/V370M): −62%
MPI ([1]; V362I/H219Q): 60%
MPI ([1]; V362I/H219Q/T332S): 52%
MPI ([1]; V362I/V370A): 31%
MPI ([1]; V362I/V370M): 51%
MPI ([1]; V370A): 84%
MPI ([1]; V370M): 78%
MPI ([1]; Wild type): 94%
MPI ([1]; ΔV370): 60%
gastrointestinal adverse events (HIV-1): a number of gastrointestinal adverse events

C=C(C)[C@@H]1CC[C@]2(NCCN3CCS(=O)(=O)CC3)CC[C@]3(C)[C@H](CC[C@@H]4[C@@]5(C)CC=C(C6=CC[C@@](CF)(C(=O)O)CC6)C(C)(C)[C@@H]5CC[C@]43C)[C@@H]12 [GSK’254]
EC50 [2, 31]: 9.1 nM
EC90 [2, 31]: 42.2 nM
EC50 [2, 32]: 12.3 nM
EC90 [2, 32]: 26.1 nM
EC50 [2, 33]: 38.2 nM
EC90 [2, 33]: 195 nM
average potency decrease in human serum ([2]; average of WT, V370A and ΔV370 viruses): 7.9 fold
fraction unbound [3]: 0.14
CC50 at 4 days [4]: 13 ± 6 µM
MPI ([1]; A364V): 45%
MPI ([1]; A366V): −7.6%
MPI ([1]; A366V/V370M): 26%
MPI ([1]; H358Y/ΔT371): 67%
EC50 ([1]; Human immunodeficiency virus 1, V362I/V370A): 4 nM
EC50 [1, 8]: > 3000 nM
EC50 [1, 9]: > 3000 nM
EC50 [1, 10]: > 3000 nM
EC50 [1, 11]: 35 ± 2 nM
EC50 [1, 12]: 39 ± 5 nM
EC50 [1, 13]: 11 ± 1 nM
EC50 [1, 14]: 11 ± 1 nM
EC50 [1, 15]: 15 ± 10 nM
EC50 [1, 16]: 14 ± 2 nM
EC50 [1, 17]: 3 nM
EC50 [1, 18]: 4 ± 1 nM
EC50 [1, 19]: 13 ± 9 nM
EC50 [1, 20]: 3 ± 1 nM
EC50 [1, 21]: > 3000 nM
EC50 [1, 22]: > 3000 nM
EC50 [1, 23]: 7 ± 2 nM
EC50 [1, 24]: 8 ± 3 nM
EC50 [1, 25]: 4 ± 1 nM
EC50 [1, 26]: 4 ± 2 nM
EC50 [1, 27]: 2 ± 1 nM
EC50 [1, 28]: 2 ± 1 nM
EC50 [1, 29]: 3 ± 2 nM
EC50 [1, 30]: 8 nM
MPI ([1]; I333V/V362I): 65%
MPI ([1]; I333V/V370): 86%
MPI ([1]; I333V/V370A): 86%
MPI ([1]; M367V): 89%
MPI ([1]; R361K/V362I/L363M): 89%
MPI ([1]; T33N/V370A): 94%
MPI ([1]; T332N/V370A): 94%
MPI ([1]; T332S/V362I/prR41G): 88%
MPI ([1]; V362I): 89%
MPI ([1]; V362I/A366V): −96%
MPI ([1]; V362I/A366V/V370M): 1%
MPI ([1]; V362I/H219Q): 91%
MPI ([1]; V362I/H219Q/T332S): 91%
MPI ([1]; V362I/V370A): 91%
MPI ([1]; V362I/V370M): 90%
MPI ([1]; V370A): 97%
MPI ([1]; V370M): 93%
MPI ([1]; Wild type): 98%
MPI ([1]; ΔV370): 96%
inhibition of p25 cleavage [5]: significantly better inhibition of p25 cleavage than GSK’795
inhibition of p25 cleavage [6]: failed to impact cleavage
average time until sufficient viral titer to permit passage 1 [7]: 24 days
